Experimental data reported in patent publication US11535632B2, “Solid forms of an S1P-receptor modulator” (ESCAPE Bio, Inc., priority 2019, dated 2022).
Entries after “also recorded” stand apart in the source; their conditions may differ.

Key:
Assay type in all cases: physicochemical
[1] = Variable temperature XRPD; settings: heated in situ to 150° C. at 10° C./min; new form denoted Form E
Experimental: For variable temperature (VT-XRPD) experiments the samples were prepared and analysed in an Anton Paar chromed sample holder with silicon wafer insert. A heating/cooling rate of 10° C./min was used with a 2 min isothermal hold before the measurement started. The measurement parameters are as per the standard screening data collection method (detailed above). Measurements were taken at the following temperatures: 25° C., 150° C. and 25° C.
Compound 1 Form B was analyzed using the Empyrean XRPD at a temperature of 25° C. The sample was then heated in situ using the variable temperature stage to 150° C. at a ramp rate of 10° C./min and held isothermally for 2 minutes whereupon a second XRPD measurement was made. The sample was then cooled to 25° C. at a ramp rate of 10° C./min held isothermally for 2 minutes whereupon a third XRPD measurement was made.

[2] = Solid state stability study
Description: The two lots of Compound 1 were characterized by HPLC, PLM, XRPD, DSC, TGA, and KF. […] According to the stability study at different conditions, the two forms of compound were practically stable at different humidity for at least 4 weeks, with no XRPD pattern change and no growth of impurities were found.

[3] = Competitive slurries of Form B and C in process relevant solvents
Experimental: Determination of the relative stabilities of Form B and Form C was undertaken to identify which material was more thermodynamically stable in process relevant solvents. As a suspected solvate was isolated from experiments where DMAC was used as a solvent, only DMSO and acetic acid were determined to be appropriate process solvents. Combinations of these solvents with relevant antisolvents were therefore selected for the competitive slurry experiments.
Compound 1 (from Example 2) was dispensed into HPLC vials. To these, 1 ml of selected solvents was subsequently added to give a suspension. Materials were slurried for 72 hours at 90° C., 50° C. or 25° C. with 500 rpm stirring. Material was subsequently isolated by centrifugation and analyzed by XRPD.

[4] = Room temperature equilibrium solubility in aqueous suspensions; settings: listed as Compound 1, Form B; for Total drug in solution: room temperature equilibrium, HPLC of supernatant
[5] = Storage for one week at controlled temperature/humidity, XRPD
Experimental: PLM images obtained of the particles show them to be a mixture of laths and larger aggregates typical of an uncontrolled antisolvent crystallization. A peak corresponding to 0.16 molar equivalents of acetic acid is present in the ^1H-NMR spectrum. […] It is evident from the corresponding DSC thermogram that this mass loss coincides with melting of the material (endotherm at 237.7° C.).

[6] = Gravimetric vapor sorption (GVS)
Experimental: Sorption isotherms were obtained using a SMS DVS Intrinsic moisture sorption analyzer, controlled by DVS Intrinsic Control software. The sample temperature was maintained at 25° C. by the instrument controls. The humidity was controlled by mixing streams of dry and wet nitrogen, with a total flow rate of 200 ml/min. The relative humidity was measured by a calibrated Rotronic probe (dynamic range of 1.0-100% RH), located near the sample. The weight change, (mass relaxation) of the sample as a function of % RH was constantly monitored by a microbalance (accuracy ±0.005 mg).
Typically, 5-30 mg of sample was placed in a tared mesh stainless steel basket under ambient conditions. The sample was loaded and unloaded at 40% RH and 25° C. (typical room conditions). A moisture sorption isotherm was performed as outlined below (2 scans per complete cycle). The standard isotherm was performed at 25° C. at 10% RH intervals over a 0-90% RH range. Typically, a double cycle (4 scans) was carried out. Data analysis was carried out within Microsoft Excel using the DVS Analysis Suite.

[7] = Water activity study
Experimental: About 15 mg of Form A and 15 mg of Form B were added to the saturated solutions of different water activities and equilibrated at 25° C. and 50° C. for 4 days, respectively. The resulting suspensions were filtered, and the solid parts (wet cake) were investigated by XRPD to determine the polymorph.
According to XRPD results, Form B was obtained in methanol/water with water activity (a.w.) ranging from 0.1 to 0.9 at 25° C., as shown in FIGS. 20A-20B. At 50° C., Form B was obtained in methanol/water with a.w. ≥0.2, whereas a mixture of Form A and Form B was obtained in a.w. […] The water activity of the binary solvent system was calculated based on UNIFAC method (UNIQUAC Functional-group Activity Coefficients).

XRPD after heating [1]: change in Form by XRPD | Crystallinity (XRPD & PLM) ([2]; 4 weeks, 25° C./60% RH): Crystalline | Purity ([2]; 4 weeks, 25° C./60% RH): 99.55% | Weight loss (TGA) (~120° C.) ([2]; 4 weeks, 25° C./60% RH): 2.374% | Crystallinity (XRPD & PLM) ([2]; 4 weeks, 40° C./75% RH): Crystalline | Purity ([2]; 4 weeks, 40° C./75% RH): 99.55% | Weight loss (TGA) (~120° C.) ([2]; 4 weeks, 40° C./75% RH): 2.319% | Crystallinity (XRPD & PLM) ([2]; 6 weeks, 25° C./60% RH): Crystalline | Purity ([2]; 6 weeks, 25° C./60% RH): 99.54% | Water content ([2]; 6 weeks, 25° C./60% RH): 3.361% | Weight loss (TGA) (~120° C.) ([2]; 6 weeks, 25° C./60% RH): 2.364% | Crystallinity (XRPD & PLM) ([2]; 6 weeks, 40° C./75% RH): Crystalline | Purity ([2]; 6 weeks, 40° C./75% RH): 99.53% | Water content ([2]; 6 weeks, 40° C./75% RH): 3.301% | Weight loss (TGA) (~120° C.) ([2]; 6 weeks, 40° C./75% RH): 2.276% | Crystallinity (XRPD & PLM) ([2]; 8 weeks, 25° C./60% RH): Crystalline | Purity ([2]; 8 weeks, 25° C./60% RH): 99.54% | Water content ([2]; 8 weeks, 25° C./60% RH): 3.830% | Weight loss (TGA) (~120° C.) ([2]; 8 weeks, 25° C./60% RH): 2.943% | Crystallinity (XRPD & PLM) ([2]; 8 weeks, 40° C./75% RH): Crystalline | Purity ([2]; 8 weeks, 40° C./75% RH): 99.55% | Water content ([2]; 8 weeks, 40° C./75% RH): 3.494% | Weight loss (TGA) (~120° C.) ([2]; 8 weeks, 40° C./75% RH): 3.809% | Crystallinity (XRPD & PLM) ([2]; Initial): Crystalline | Purity ([2]; Initial): 99.54% | Water content ([2]; Initial): 3.677% | Weight loss (TGA) (~120° C.) ([2]; Initial): 2.233% | Total drug in solution ([4]; 0.2% HPMC aqueous suspension): <1 µg/mL | pH ([4]; 0.2% HPMC aqueous suspension): 6.7 | Total drug in solution ([4]; 0.25% SLS aqueous suspension): 7.8 µg/mL | pH ([4]; 0.25% SLS aqueous suspension): 6.0 | Total drug in solution ([4]; 20% HP-BCD aqueous suspension): 74.2 µg/mL | pH ([4]; 20% HP-BCD aqueous suspension): 6.1 | Relative humidity at which the monohydrate is stable ([6]; readily rehydrates after water loss): > 20 % RH | critical water activity between Form A and Form B ([7]; 25° C., methanol/water): less than 0.1 | Relative stability of forms ([7]; ambient condition): more stable than Form A
SMILES: O=C(O)[C@H]1C[C@@H](N2CCc3oc(-c4ccc(OCc5ccc(Cl)cc5)cc4)nc3C2)C1 [Form B, (1s,3s)-3-(2-(4-((4-chlorobenzyl)oxy)phenyl)-6,7-dihydrooxazolo[4,5-c]pyridin-5(4H)-yl)cyclobutane-1-carboxylic acid]
Relative thermodynamic stability ([3]; acetic acid mixtures and temperatures investigated): more thermodynamically stable than Form C | Relative thermodynamic stability ([3]; majority of experimental conditions assessed): more thermodynamically stable than Form C | XRPD after storage ([5]; 25° C./97% RH for one week): did not result in changes to material as measured by XRPD; also recorded: Unchanged by XRPD | XRPD after storage ([5]; 40° C./75% RH for one week): did not result in changes to material as measured by XRPD; also recorded: Unchanged by XRPD | XRPD post GVS analysis [6]: Unchanged by XRPD post analysis; also recorded: Sample unchanged by XRPD
